According to ChEMBL document CHEMBL4706518, “Discovery of MGS0274, an ester prodrug of a metabotropic glutamate receptor 2/3 agonist with improved oral bioavailability” (Eur J Med Chem, 2020):
One block for each compound: values may come before it. Active and inactive are the calls of the source. The rule behind the calls is not given here.

Assays:
[1] = target: Sigma non-opioid intracellular receptor 1 (Homo sapiens) (UniProt Q99720); test: Binding affinity to sigma1 receptor (unknown origin) 10 umol/L by radioligand binding assay; settings: dose 10.0 µmol/L
Chain of Sigma non-opioid intracellular receptor 1 (Homo sapiens) (Q99720 whole entry): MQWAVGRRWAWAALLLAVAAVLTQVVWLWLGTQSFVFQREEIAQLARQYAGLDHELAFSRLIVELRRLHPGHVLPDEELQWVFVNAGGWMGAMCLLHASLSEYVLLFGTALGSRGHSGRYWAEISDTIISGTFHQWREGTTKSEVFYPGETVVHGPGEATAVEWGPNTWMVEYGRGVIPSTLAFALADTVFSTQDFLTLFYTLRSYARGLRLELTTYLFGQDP

[2] = target: Platelet-activating factor receptor (Homo sapiens) (UniProt P25105); test: Binding affinity to PAF receptor (unknown origin) 10 umol/L by radioligand binding assay; settings: dose 10.0 µmol/L
Chain of Platelet-activating factor receptor (Homo sapiens) (P25105 whole entry): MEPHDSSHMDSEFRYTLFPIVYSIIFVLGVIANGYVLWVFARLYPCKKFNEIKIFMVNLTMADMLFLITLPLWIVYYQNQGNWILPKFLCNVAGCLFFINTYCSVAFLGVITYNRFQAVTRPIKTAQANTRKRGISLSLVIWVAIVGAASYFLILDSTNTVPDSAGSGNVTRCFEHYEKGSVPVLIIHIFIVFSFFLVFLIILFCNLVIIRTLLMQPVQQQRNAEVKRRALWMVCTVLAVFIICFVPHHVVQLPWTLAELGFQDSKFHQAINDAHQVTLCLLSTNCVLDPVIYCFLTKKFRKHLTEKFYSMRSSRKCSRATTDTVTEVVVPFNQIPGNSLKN

[3] = target: Kappa-type opioid receptor (Homo sapiens) (UniProt P41145); test: Binding affinity to kappa receptor (unknown origin) 10 umol/L by radioligand binding assay; settings: dose 10.0 µmol/L
Chain of Kappa-type opioid receptor (Homo sapiens) (P41145 whole entry): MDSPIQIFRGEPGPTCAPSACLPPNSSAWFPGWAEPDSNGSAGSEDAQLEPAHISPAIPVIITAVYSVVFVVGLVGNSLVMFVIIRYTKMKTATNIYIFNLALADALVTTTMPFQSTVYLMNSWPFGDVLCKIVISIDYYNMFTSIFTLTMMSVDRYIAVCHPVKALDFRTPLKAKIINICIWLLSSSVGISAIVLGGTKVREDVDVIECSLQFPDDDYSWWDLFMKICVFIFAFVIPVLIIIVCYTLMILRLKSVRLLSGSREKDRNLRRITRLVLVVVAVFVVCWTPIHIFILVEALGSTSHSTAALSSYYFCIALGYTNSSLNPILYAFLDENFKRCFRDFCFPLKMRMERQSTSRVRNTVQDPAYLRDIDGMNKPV

[4] = target: Prostaglandin E2 receptor EP2 subtype (Homo sapiens) (UniProt P43116); test: Binding affinity to Prostanoid EP2 receptor (unknown origin) 10 umol/L by radioligand binding assay; settings: dose 10.0 µmol/L
Homo sapiens [5] = species: Homo sapiens; test: Binding affinity to NMDA receptor polyamine site (unknown origin) 10 umol/L by radioligand binding assay; settings: dose 10.0 µmol/L
Homo sapiens [6] = species: Homo sapiens; test: Binding affinity to nACh receptor (unknown origin) 10 umol/L by radioligand binding assay; settings: dose 10.0 µmol/L
Homo sapiens [7] = species: Homo sapiens; test: Binding affinity to bombesin receptor (unknown origin) 10 umol/L by radioligand binding assay; settings: dose 10.0 µmol/L
[8] = target: 5-hydroxytryptamine receptor 2A (Homo sapiens) (UniProt P28223); test: Binding affinity to 5-HT2A receptor (unknown origin) 10 umol/L by radioligand binding assay; settings: dose 10.0 µmol/L
Homo sapiens [9] = species: Homo sapiens; test: Binding affinity to GABAA receptor agonist site (unknown origin) 10 umol/L by radioligand binding assay; settings: dose 10.0 µmol/L
[10] = target: Adenosine receptor A3 (Homo sapiens) (UniProt P0DMS8); test: Binding affinity to A3 receptor (unknown origin) 10 umol/L by radioligand binding assay; settings: dose 10.0 µmol/L
[11] = target: Muscarinic acetylcholine receptor M4 (Homo sapiens) (UniProt P08173); test: Binding affinity to muscarinic M4 (unknown origin) 10 umol/L by radioligand binding assay; settings: dose 10.0 µmol/L
Chain of Muscarinic acetylcholine receptor M4 (Homo sapiens) (P08173 whole entry): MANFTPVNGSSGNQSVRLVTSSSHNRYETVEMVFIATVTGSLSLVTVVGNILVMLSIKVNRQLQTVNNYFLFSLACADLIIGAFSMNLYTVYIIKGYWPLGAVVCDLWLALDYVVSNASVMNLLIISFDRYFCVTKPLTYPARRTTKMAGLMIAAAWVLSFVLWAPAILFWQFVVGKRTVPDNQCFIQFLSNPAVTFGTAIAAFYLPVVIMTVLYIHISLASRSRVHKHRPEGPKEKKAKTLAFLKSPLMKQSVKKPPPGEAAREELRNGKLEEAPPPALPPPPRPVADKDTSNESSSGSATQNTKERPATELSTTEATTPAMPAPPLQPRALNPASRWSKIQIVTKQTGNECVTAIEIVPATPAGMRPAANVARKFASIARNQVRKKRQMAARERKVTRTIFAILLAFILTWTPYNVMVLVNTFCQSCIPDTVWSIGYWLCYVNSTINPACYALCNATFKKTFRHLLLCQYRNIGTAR

[12] = target: Muscarinic acetylcholine receptor M5 (Homo sapiens) (UniProt P08912); test: Binding affinity to muscarinic M5 (unknown origin) 10 umol/L by radioligand binding assay; settings: dose 10.0 µmol/L
Homo sapiens [13] = species: Homo sapiens; test: Binding affinity to ATP-sensitive inward rectifier potassium channel (unknown origin) 10 umol/L by radioligand binding assay; settings: dose 10.0 µmol/L
[14] = target: Endothelin receptor type B (Homo sapiens) (UniProt P24530); test: Binding affinity to ETB receptor (unknown origin) 10 umol/L by radioligand binding assay; settings: dose 10.0 µmol/L
Homo sapiens [15] = species: Homo sapiens; test: Binding affinity to estrogen receptor (unknown origin) 10 umol/L by radioligand binding assay; settings: dose 10.0 µmol/L
Homo sapiens [16] = species: Homo sapiens; test: Binding affinity to Small conductance calcium-activated potassium channel (unknown origin) 10 umol/L by radioligand binding assay; settings: dose 10.0 µmol/L
Homo sapiens [17] = species: Homo sapiens; test: Binding affinity to AMPA receptor (unknown origin) 10 umol/L by radioligand binding assay; settings: dose 10.0 µmol/L
[18] = target: Alpha-2C adrenergic receptor (Homo sapiens) (UniProt P18825); test: Binding affinity to alpha2C adrenoreceptor (unknown origin) 10 umol/L by radioligand binding assay; settings: dose 10.0 µmol/L
Chain of Alpha-2C adrenergic receptor (Homo sapiens) (P18825 whole entry): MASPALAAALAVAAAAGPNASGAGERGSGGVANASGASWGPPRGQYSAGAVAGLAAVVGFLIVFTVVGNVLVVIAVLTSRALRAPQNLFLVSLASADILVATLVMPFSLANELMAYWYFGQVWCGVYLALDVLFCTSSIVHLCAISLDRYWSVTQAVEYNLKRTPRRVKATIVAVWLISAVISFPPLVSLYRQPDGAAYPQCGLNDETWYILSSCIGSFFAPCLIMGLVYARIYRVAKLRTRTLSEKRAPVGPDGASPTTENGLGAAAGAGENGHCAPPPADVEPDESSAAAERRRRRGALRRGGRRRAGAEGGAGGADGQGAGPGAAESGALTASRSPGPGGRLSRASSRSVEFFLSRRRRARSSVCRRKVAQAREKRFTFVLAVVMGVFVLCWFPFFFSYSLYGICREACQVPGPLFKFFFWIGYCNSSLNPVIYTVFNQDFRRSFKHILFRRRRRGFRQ

Homo sapiens [19] = species: Homo sapiens; test: Binding affinity to NMDA receptor agonist site (unknown origin) 10 umol/L by radioligand binding assay; settings: dose 10.0 µmol/L
Homo sapiens [20] = species: Homo sapiens; test: Binding affinity to Vasopressin V1 receptor (unknown origin) 10 umol/L by radioligand binding assay; settings: dose 10.0 µmol/L
Homo sapiens [21] = species: Homo sapiens; test: Binding affinity to sodium channel site 2 (unknown origin) 10 umol/L by radioligand binding assay; settings: dose 10.0 µmol/L
[22] = target: Corticotropin-releasing factor receptor 1 (Homo sapiens) (UniProt P34998); test: Binding affinity to CRF1(unknown origin) 10 umol/L by radioligand binding assay; settings: dose 10.0 µmol/L
Chain of Corticotropin-releasing factor receptor 1 (Homo sapiens) (P34998 whole entry): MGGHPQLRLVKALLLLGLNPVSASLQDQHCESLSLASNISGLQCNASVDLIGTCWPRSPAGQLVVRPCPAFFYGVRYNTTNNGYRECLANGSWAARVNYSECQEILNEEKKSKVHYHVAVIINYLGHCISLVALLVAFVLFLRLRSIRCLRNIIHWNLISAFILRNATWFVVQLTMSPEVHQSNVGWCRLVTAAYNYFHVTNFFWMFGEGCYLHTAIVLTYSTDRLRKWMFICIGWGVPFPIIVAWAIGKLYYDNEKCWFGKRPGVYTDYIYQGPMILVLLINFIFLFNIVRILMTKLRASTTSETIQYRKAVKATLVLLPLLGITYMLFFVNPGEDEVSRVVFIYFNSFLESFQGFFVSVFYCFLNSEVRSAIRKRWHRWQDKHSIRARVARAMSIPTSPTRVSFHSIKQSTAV

[23] = target: Substance-P receptor (Homo sapiens) (UniProt P25103); test: Binding affinity to NK1 receptor (unknown origin) 10 umol/L by radioligand binding assay; settings: dose 10.0 µmol/L
Chain of Substance-P receptor (Homo sapiens) (P25103 whole entry): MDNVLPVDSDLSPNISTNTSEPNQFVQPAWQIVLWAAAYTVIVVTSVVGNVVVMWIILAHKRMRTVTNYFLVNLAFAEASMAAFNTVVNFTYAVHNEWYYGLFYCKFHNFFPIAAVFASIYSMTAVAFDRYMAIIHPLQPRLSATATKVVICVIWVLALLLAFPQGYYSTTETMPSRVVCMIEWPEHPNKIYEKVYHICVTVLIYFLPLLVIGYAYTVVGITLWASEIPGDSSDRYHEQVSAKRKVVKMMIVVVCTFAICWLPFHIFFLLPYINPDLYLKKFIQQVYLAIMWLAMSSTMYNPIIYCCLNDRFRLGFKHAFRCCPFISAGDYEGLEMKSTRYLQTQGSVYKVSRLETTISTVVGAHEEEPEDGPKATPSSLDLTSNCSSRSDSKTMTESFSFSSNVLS

[24] = target: Metabotropic glutamate receptor 3 (Homo sapiens, UniProt Q14832); test: Agonist activity at human mGlu3 receptor expressed in CHO cell membranes by GTPgammaS binding assay; format: functional, Cell membrane
Chain of Metabotropic glutamate receptor 3 (Q14832 whole entry): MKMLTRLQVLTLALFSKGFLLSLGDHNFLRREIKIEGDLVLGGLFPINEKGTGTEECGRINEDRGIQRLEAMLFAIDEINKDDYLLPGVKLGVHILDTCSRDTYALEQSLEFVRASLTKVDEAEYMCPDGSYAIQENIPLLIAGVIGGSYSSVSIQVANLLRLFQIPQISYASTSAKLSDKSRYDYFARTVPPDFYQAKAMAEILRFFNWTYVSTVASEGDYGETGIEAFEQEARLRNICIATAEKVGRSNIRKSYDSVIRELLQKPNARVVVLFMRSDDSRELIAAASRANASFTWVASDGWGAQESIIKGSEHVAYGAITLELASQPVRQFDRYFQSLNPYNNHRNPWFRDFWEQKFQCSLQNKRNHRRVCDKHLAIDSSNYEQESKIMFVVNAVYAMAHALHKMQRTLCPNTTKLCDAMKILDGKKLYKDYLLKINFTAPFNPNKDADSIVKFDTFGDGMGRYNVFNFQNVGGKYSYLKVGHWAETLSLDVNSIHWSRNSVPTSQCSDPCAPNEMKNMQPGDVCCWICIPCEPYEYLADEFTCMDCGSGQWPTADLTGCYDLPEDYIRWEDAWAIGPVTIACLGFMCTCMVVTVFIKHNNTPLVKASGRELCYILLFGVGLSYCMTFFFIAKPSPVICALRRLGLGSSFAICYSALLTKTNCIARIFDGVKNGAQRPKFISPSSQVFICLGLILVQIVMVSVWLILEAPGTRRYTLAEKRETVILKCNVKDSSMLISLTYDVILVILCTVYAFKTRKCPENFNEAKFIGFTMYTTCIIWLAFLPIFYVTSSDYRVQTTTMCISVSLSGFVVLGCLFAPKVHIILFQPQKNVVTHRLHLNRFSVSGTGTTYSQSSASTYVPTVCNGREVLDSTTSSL

[25] = target: Mu-type opioid receptor (Homo sapiens) (UniProt P35372); test: Binding affinity to mu receptor (unknown origin) 10 umol/L by radioligand binding assay; settings: dose 10.0 µmol/L
[26] = target: Cholecystokinin receptor type A (Homo sapiens) (UniProt P32238); test: Binding affinity to CCKA (unknown origin) 10 umol/L by radioligand binding assay; settings: dose 10.0 µmol/L
[27] = target: Androgen receptor (Homo sapiens) (UniProt P10275); test: Binding affinity to androgen receptor (unknown origin) 10 umol/L by radioligand binding assay; settings: dose 10.0 µmol/L
Chain of Androgen receptor (Homo sapiens) (P10275 whole entry): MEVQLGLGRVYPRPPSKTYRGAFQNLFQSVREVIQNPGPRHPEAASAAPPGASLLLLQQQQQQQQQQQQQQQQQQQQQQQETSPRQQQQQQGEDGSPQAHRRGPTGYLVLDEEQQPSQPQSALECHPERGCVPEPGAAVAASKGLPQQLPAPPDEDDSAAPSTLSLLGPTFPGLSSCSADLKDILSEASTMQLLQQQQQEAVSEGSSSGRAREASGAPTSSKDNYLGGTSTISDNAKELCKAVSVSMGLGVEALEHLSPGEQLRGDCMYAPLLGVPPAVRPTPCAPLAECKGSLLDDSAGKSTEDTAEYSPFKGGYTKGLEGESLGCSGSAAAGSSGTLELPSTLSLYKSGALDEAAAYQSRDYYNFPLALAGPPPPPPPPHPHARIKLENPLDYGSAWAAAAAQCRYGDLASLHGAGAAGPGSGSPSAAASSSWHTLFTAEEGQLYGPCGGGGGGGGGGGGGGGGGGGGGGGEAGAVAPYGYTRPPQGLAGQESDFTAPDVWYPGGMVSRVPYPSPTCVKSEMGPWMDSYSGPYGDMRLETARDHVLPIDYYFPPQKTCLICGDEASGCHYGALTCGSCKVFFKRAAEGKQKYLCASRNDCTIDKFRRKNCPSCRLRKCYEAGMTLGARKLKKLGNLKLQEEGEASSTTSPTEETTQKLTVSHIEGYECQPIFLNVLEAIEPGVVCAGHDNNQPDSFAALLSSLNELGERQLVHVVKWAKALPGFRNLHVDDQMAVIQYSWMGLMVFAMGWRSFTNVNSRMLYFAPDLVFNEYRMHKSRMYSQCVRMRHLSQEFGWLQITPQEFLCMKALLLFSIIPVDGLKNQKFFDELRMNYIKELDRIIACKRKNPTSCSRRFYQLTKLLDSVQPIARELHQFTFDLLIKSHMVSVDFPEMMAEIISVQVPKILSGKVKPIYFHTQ

[28] = target: Histamine H2 receptor (Homo sapiens) (UniProt P25021); test: Binding affinity to H2 receptor (unknown origin) 10 umol/L by radioligand binding assay; settings: dose 10.0 µmol/L
[29] = target: Muscarinic acetylcholine receptor M3 (Homo sapiens) (UniProt P20309); test: Binding affinity to muscarinic M3 (unknown origin) 10 umol/L by radioligand binding assay; settings: dose 10.0 µmol/L
[30] = target: 5-hydroxytryptamine receptor 3A (Homo sapiens) (UniProt P46098); test: Binding affinity to 5-HT3 receptor (unknown origin) 10 umol/L by radioligand binding assay; settings: dose 10.0 µmol/L
Homo sapiens [31] = species: Homo sapiens; test: Binding affinity to Monoamine transporter (unknown origin) 10 umol/L by radioligand binding assay; settings: dose 10.0 µmol/L
[32] = target: Voltage-gated L-type calcium channel (Homo sapiens, UniProt Q13936+Q13698+Q01668+O60840); test: Binding affinity to Voltage-dependent L-type calcium channel phenylalkylamine site (unknown origin) 10 umol/L by radioligand binding assay; format: protein assay; settings: 10 µM, dose 10 µmol/L
[33] = target: Neuromedin-K receptor (Homo sapiens) (UniProt P29371); test: Binding affinity to NK3 receptor (unknown origin) 10 umol/L by radioligand binding assay; settings: dose 10.0 µmol/L
[34] = target: Vasopressin V2 receptor (Homo sapiens) (UniProt P30518); test: Binding affinity to Vasopressin V2 receptor (unknown origin) 10 umol/L by radioligand binding assay; settings: dose 10.0 µmol/L
Homo sapiens [35] = species: Homo sapiens; test: Binding affinity to GABA transporter (unknown origin) 10 umol/L by radioligand binding assay; settings: dose 10.0 µmol/L
[36] = target: Beta-2 adrenergic receptor (Homo sapiens) (UniProt P07550); test: Binding affinity to beta2 adrenoreceptor (unknown origin) 10 umol/L by radioligand binding assay; settings: dose 10.0 µmol/L
[37] = target: Sodium-dependent serotonin transporter (Homo sapiens) (UniProt P31645); test: Inhibition of serotonin transporter (unknown origin) 10 umol/L by radioligand binding assay relative to control; settings: dose 10.0 µmol/L
[38] = target: Endothelin-1 receptor (Homo sapiens) (UniProt P25101); test: Binding affinity to ETA receptor (unknown origin) 10 umol/L by radioligand binding assay; settings: dose 10.0 µmol/L
Chain of Endothelin-1 receptor (Homo sapiens) (P25101 whole entry): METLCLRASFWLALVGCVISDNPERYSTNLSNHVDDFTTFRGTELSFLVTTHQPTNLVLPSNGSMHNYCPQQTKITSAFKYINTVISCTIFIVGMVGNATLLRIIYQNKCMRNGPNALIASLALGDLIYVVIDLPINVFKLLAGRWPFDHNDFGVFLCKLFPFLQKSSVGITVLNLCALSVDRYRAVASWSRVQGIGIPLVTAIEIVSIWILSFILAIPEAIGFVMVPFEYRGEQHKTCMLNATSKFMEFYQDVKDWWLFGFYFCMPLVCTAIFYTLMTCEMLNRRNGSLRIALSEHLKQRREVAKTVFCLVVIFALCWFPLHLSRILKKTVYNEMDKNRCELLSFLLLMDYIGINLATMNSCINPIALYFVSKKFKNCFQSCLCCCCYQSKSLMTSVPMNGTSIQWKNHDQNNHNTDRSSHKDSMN

Homo sapiens [39] = species: Homo sapiens; test: Binding affinity to Leukotriene B4 receptor (unknown origin) 10 umol/L by radioligand binding assay; settings: dose 10.0 µmol/L
Homo sapiens [40] = species: Homo sapiens; test: Binding affinity to IP3 receptor (unknown origin) 10 umol/L by radioligand binding assay; settings: dose 10.0 µmol/L
Homo sapiens [41] = species: Homo sapiens; test: Binding affinity to D4.2 receptor (unknown origin) 10 umol/L by radioligand binding assay; settings: dose 10.0 µmol/L
Homo sapiens [42] = species: Homo sapiens; test: Binding affinity to Kainate receptor (unknown origin) 10 umol/L by radioligand binding assay; settings: dose 10.0 µmol/L
[43] = target: Alpha-2B adrenergic receptor (Homo sapiens) (UniProt P18089); test: Binding affinity to alpha2B adrenoreceptor (unknown origin) 10 umol/L by radioligand binding assay; settings: dose 10.0 µmol/L
[44] = target: B1 bradykinin receptor (Homo sapiens) (UniProt P46663); test: Binding affinity to B1 receptor (unknown origin) 10 umol/L by radioligand binding assay; settings: dose 10.0 µmol/L
[45] = target: Gastrin/cholecystokinin type B receptor (Homo sapiens) (UniProt P32239); test: Binding affinity to CCKB (unknown origin) 10 umol/L by radioligand binding assay; settings: dose 10.0 µmol/L

Activity [1]: inactive
Activity [2]: inactive
Activity [3]: inactive
Activity [4]: inactive
Activity (Homo sapiens [5]): inactive
Activity (Homo sapiens [6]): inactive
Activity (Homo sapiens [7]): inactive
Activity [8]: inactive
Activity (Homo sapiens [9]): inactive
Activity [10]: inactive
Activity [11]: inactive
Activity [12]: inactive
Activity (Homo sapiens [13]): inactive
Activity [14]: inactive
Activity (Homo sapiens [15]): inactive
Activity (Homo sapiens [16]): inactive
Activity (Homo sapiens [17]): inactive
Activity [18]: inactive
Activity (Homo sapiens [19]): inactive
Activity (Homo sapiens [20]): inactive
Activity (Homo sapiens [21]): inactive
Activity [22]: inactive
Activity [23]: inactive
EC50 [24]: 75.9 nM
Activity [25]: inactive
Activity [26]: inactive
Activity [27]: inactive
Activity [28]: inactive
Activity [29]: inactive
Activity [30]: inactive
Activity (Homo sapiens [31]): inactive
Activity [32]: Not Active
Activity [33]: inactive
Activity [34]: inactive
Activity (Homo sapiens [35]): inactive
Activity [36]: inactive
inhibition [37]: inactive
Activity [38]: inactive
Activity (Homo sapiens [39]): inactive
Activity (Homo sapiens [40]): inactive
Activity (Homo sapiens [41]): inactive
Activity (Homo sapiens [42]): inactive
Activity [43]: inactive
Activity [44]: inactive
Activity [45]: inactive
Compound: N[C@]1(C(=O)O)[C@H]2[C@@H](C[C@@H]1F)[C@@H]2C(=O)O

Activity [1]: inactive
Activity [2]: inactive
Activity [3]: inactive
Activity [4]: inactive
Activity (Homo sapiens [5]): inactive
Activity (Homo sapiens [6]): inactive
Activity (Homo sapiens [7]): inactive
Activity [8]: inactive
Activity (Homo sapiens [9]): inactive
Activity [10]: inactive
Activity [11]: inactive
Activity [12]: inactive
Activity (Homo sapiens [13]): inactive
Activity [14]: inactive
Activity (Homo sapiens [15]): inactive
Activity (Homo sapiens [16]): inactive
Activity (Homo sapiens [17]): inactive
Activity [18]: inactive
Activity (Homo sapiens [19]): inactive
Activity (Homo sapiens [20]): inactive
Activity (Homo sapiens [21]): inactive
Activity [22]: inactive
Activity [23]: inactive
EC50 [24]: > 30000 nM
Activity [25]: inactive
Activity [26]: inactive
Activity [27]: inactive
Activity [28]: inactive
Activity [29]: inactive
Activity [30]: inactive
Activity (Homo sapiens [31]): inactive
Activity [32]: Not Active
Activity [33]: inactive
Activity [34]: inactive
Activity (Homo sapiens [35]): inactive
Activity [36]: inactive
inhibition [37]: 76%
Activity [38]: inactive
Activity (Homo sapiens [39]): inactive
Activity (Homo sapiens [40]): inactive
Activity (Homo sapiens [41]): inactive
Activity (Homo sapiens [42]): inactive
Activity [43]: inactive
Activity [44]: inactive
Activity [45]: inactive
Compound: CC(C)[C@@H]1CC[C@@H](C)C[C@H]1OC(=O)O[C@@H](C)OC(=O)[C@H]1[C@@H]2C[C@H](F)[C@@](N)(C(=O)O)[C@@H]21
